# From patent publication US10864201B2, “Heteroaromatic compounds as Vanin inhibitors” (Boehringer Ingelheim International GmbH, priority 2018, dated 2020)
# Tests used:
# [1] = biological target: FLAG-tagged Vanin-1 (AA 22-493, T26I) (Homo sapiens (Human), UniProt O95497, T26I); test: Vanin-1 enzymatic assay; format: biochemical; conditions: formation of pantothenic acid from D-pantethine (3 μM), RapidFire MS; geometric mean in case of multiple measurements; read-out: VNN 1 IC50
# Description: The test compounds are dissolved in 100% DMSO at a concentration of 10 mM and in a first step diluted in DMSO to a concentration of 5 mM, followed by serial dilution steps in 100% DMSO. Dilution factor and number of dilution steps may vary according to needs. Typically 8 different concentrations by 1:5 dilutions are prepared, a further intermediate dilutions of the substances is carried out with assay buffer resulting in 1% final DMSO concentration in the assay.
# 0.1 nM of FLAG-tagged Vanin-1 (AA 22-493, T26I, produced internally) and test compounds are incubated at room temperature for 20 minutes in assay buffer (1 mM DTT, 0.0025% Brij-35, 50 mM HEPES, pH7.5). D-Pantethine (Sigma, Cat #P2125-5G) in assay buffer is added (final concentration 3 μM) and incubated for additional 30 minutes at room temperature. Total assay volume typically is 40 μl but might be adjusted according to needs. Reaction is stopped by adding equal volume of stop solution as the reaction mixture to reach 100 nM HD-pantothenic acid (as an internal standard) and 1% TFA. Assay plates are centrifuged for 2 minutes and the formation of pantothenic acid is detected by RapidFire Mass Spectrometry (mobile phase A: 0.1% formic acid and 0.01% trifluoroacetic acid in water; mobile phase B: 47.5% acetonitrile, 47.5% methanol, 0.1% formic acid and 0.01% trifluoroacetic acid in water) using a C18, 12 μL cartridge (Agilent Cat #G9205A).
# The values given in Table I result from measurements of one or more samples. In case of multiple measurements the geometric mean values are given.
# [2] = system: Pantetheinase (vanin); test: Human Whole Blood assay; format: cell-based; conditions: formation of pantothenic acid after pantethine supplementation, RapidFire MS, read-out: HWB IC50
# Description: Human Whole Blood assay: Pantetheinase (vanin) converts panteheine into pantothenic acid and cysteamine. Accordingly, in the described protocol vanin activity is quantified by formation of pantothenic acid after pantetheine supplementation via pantethine. The assay is applicable to identify vanin inhibitors. Compound stocks were dissolved in DMSO at 10 mM. Further dilutions were performed in RPMI 1640 medium (Gibco, #A-10491-01) and final concentrations in the assay were 0.032 nM-500 nM.
# Human blood was drawn into a blood bag (1% heparin, 50 I.E./mL). Blood was aliquoted into cavities of 96-deep-well plates at 290 μL and mixed with 10 μL compound solution or vehicle (30 sec at 1400 rpm on a shaker). Equilibration followed at room temperature, 250 rpm and for 30 min. The assay was started by adding 10 μL of substrate solution (20 μM pantethine in 1 mM DTT, 0.0025% Brij-35, 50 mM HEPES, pH7.5) to each well, except for some blank wells which received […] substrate buffer (1 mM DTT, 0.0025% Brij-35, 50 mM HEPES, pH7.5) only. Samples were thoroughly shaken (30 sec, 1400 rpm) and reaction was allowed to take place at room temperature, 250 rpm and for 5 min. The reaction was stopped by addition of a vanin tool inhibitor in excess (BI-1 total conc. 10 μM). Centrifugation of the plate followed at 4° C., 665 G for 10 min. Then the blood plasma samples (100 μL) were transferred into another 96-deep-well plate and proteins were precipitated (5 min on ice) by adding 100 μL of ice cold precipitation solution (1 μM labelled pantothenic acid (di-β-alanine-13C6,15N2 calcium salt, Sigma, #705837) in acetonitrile). Afterwards the plate was centrifuged (4° C., 3220 G, 10 min) and supernatants (50 μL) were collected into another 96-deep-well plate and mixed (10 sec, 1400 rpm) with 150 μL ice cold formic acid (0.1%, Carl Roth GmbH+Co.KG, #CP03.1). The formation of pantothenic acid is detected by RapidFire Mass Spectrometry. A TripleQuad 6500+ (ABSciex, Germany) was equipped with an LC-1290 system, a RapidFire autosampler (Agilent, Germany) and a C18 cartridge Type C 12 μL (Agilent Cat #G9526-80000). Mobile phase A was consisting of 0.09% formic acid and 0.01% trifluoroacetic acid in water and mobile phase B of 0.09% formic acid and 0.01% trifluoroacetic acid in acetonitrile/methanol/water=47.5/47.5/5.
# FLAG-tagged Vanin-1 (AA 22-493, T26I), sequence (O95497 22-493 T26I): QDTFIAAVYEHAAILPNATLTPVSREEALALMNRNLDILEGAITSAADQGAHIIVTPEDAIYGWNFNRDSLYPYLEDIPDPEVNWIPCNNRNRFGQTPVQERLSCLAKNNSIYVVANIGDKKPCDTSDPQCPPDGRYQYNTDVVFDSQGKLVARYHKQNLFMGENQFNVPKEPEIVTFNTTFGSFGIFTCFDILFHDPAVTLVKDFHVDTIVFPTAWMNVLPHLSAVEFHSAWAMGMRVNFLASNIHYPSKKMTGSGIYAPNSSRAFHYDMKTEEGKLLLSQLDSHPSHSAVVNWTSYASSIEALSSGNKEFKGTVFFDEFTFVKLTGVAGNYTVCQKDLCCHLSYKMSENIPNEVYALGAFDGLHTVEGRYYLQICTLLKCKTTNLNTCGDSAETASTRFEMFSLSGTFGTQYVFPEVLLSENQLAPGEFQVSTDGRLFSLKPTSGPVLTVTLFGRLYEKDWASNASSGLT
Compound,IC50 [1] [nM],IC50 [2] [nM]
C[C@]1(c2ccc(F)cc2)Cc2cc(C(=O)N3CC[C@H](N4CCCC4=O)C3)cnc2N1 [Example 5.3],0.1,1.5
CN(c1ncccn1)[C@H]1CCN(C(=O)c2cnc3c(c2)C[C@](C)(c2ccc(F)cc2)N3)C1 [Example 5.5],0.2,17.2
C[C@]1(c2ccc(F)cc2)Cc2cc(C(=O)N3CC4(CCOCC4)C3)cnc2N1 [Example 5.6],0.6,10.3
"CC(=O)N(C)[C@H]1CCN(C(=O)c2cnc3c(c2)C[C@](C)(c2ccc(F)cc2)N3)C1 [Example 6, N-[(3S)-1-[(2R)-2-(4-Fluorophenyl)-2-methyl-1H,2H,3H-pyrrolo[2,3-b]lpyridine-5-carbonyl]-pyrrolidin-3-yl]-N-methylacetamide]",0.2,1.9
CC(=O)N(C)[C@H]1CCN(C(=O)c2cnc3c(c2)C[C@](C)(c2cccc(Cl)c2)N3)C1 [Example 7.2],0.1,2
CC(=O)N(C)[C@H]1CCN(C(=O)c2cnc3c(c2)C[C@@](C)(c2cccc(Cl)c2)N3)C1 [Example 7.3],18.9,424
C[C@]1(c2cccc(Cl)c2)Cc2cc(C(=O)N3CC[C@H](N4CCOC4=O)C3)cnc2N1 [Example 7.4],0.1,1.9
C[C@]1(c2ccc(Cl)cc2)Cc2cc(C(=O)N3CC[C@H](N4CCOC4=O)C3)cnc2N1 [Example 8.2],0.1,2.6
C[C@]1(c2ccc(Cl)cc2)Cc2cc(C(=O)N3CC[C@H](N4CCCC4=O)C3)cnc2N1 [Example 8.3],0.1,3.8
"CC(=O)N(C)[C@H]1CCN(C(=O)c2cnc3c(c2)C[C@](C)(c2ccc(Cl)cc2)N3)C1 [Example 9.1, N-[(3S)-1-[(2R)-2-(4-Chlorophenyl)-2-methyl-1H,2H,3H-pyrrolo[2,3-b]pyridine-5-carbonyl]pyrrolidin-3-yl]-N-methylacetamide]",0.1,3
CC(=O)N(C)[C@H]1CCN(C(=O)c2cnc3c(c2)C[C@](C)(c2ccccc2)N3)C1 [Example 9.3],0.2,2.1
CC1(C)CCc2cc(C(=O)N3CC4(CCOCC4)C3)cnc2N1 [Example 11.2],0.3,4.5
CN(c1ncccn1)[C@H]1CCN(C(=O)c2cnc3c(c2)CCC(C)(C)N3)C1 [Example 11.3],0.2,2.9
CN(C(=O)C1(C)CCC1)[C@H]1CCN(C(=O)c2cnc3c(c2)CCC(C)(C)N3)C1 [Example 11.4],0.9,11.4
CC(=O)N(C)[C@H]1CCN(C(=O)c2cnc3c(c2)CCC(C)(C)N3)C1 [Example 11.6],0.5,12.6
CC1(C)CCc2cc(C(=O)N3CC[C@H](N4CCCC4=O)C3)cnc2N1 [Example 11.8],0.7,5.2
CN(C(=O)C1CC1)[C@H]1CCN(C(=O)c2cnc3c(c2)CCC(C)(C)N3)C1 [Example 11.9],0.7,3.5
CN(C(=O)C1CCC1)[C@H]1CCN(C(=O)c2cnc3c(c2)CCC(C)(C)N3)C1 [Example 11.10],0.6,10.6
CN(C(=O)C1CC(F)(F)C1)[C@H]1CCN(C(=O)c2cnc3c(c2)CCC(C)(C)N3)C1 [Example 11.11],0.5,6.9
CCC1(C)CCc2cc(C(=O)N3CC[C@H](N(C)C(C)=O)C3)cnc2N1 (stereo partly drawn) [Example 11.12],0.5,5.7
CC(=O)N(C)[C@H]1CCN(C(=O)c2cnc3c(c2)CCC(C)(c2ccccc2)N3)C1 (stereo partly drawn) [Example 12.2],0.3,8.2
